Data: patent US7915297B2, “Isoxazole derivatives and use thereof” (SK Holdings Co., Ltd., priority 2005, dated 2011)

Tests used:
[1] = tested on: Wnt/β-catenin signaling (β-catenin activity) in SW480 cell line; experiment: Cell-based Wnt agonist screening, TCF luciferase reporter, SW480 (TCF-FL); set-up: species or system human; conditions: % of LiCl (20 mM); for Emax at 30 µM: Con. 30 μM; for Emax at 120 µM: Con. 120 μM; for Emax at 1 µM: Con. 1 μM
Excerpt: (§1) In order to measure the in vitro activity of compounds of the present invention, two human cancer cell lines, HEK293 and SW480, which have intact Wnt signaling and show APC gene mutation in the Wnt signaling pathway, respectively, were used.
(§2) For evaluating the activity of wnt/β-catenin signaling in the cancer cell lines, gene as illustrated in FIG. 1 having β-catenin-binding sites of the Tcf/Lef transcriptional control protein (5 sites of TCF, 5X TCF) and having a fire fly luficerase as a marker protein ascertainable the activity of 5X TCF was introduced into the cells. Treatment with G418 led monoclones of the cell lines, in which the genes were permanently expressed, so as to construct a cell-based Wnt agonist screening system. […] For comparison with the activity of the isoxazole derivatives as Wnt agonists, lithium chloride (LiCl), acting as a positive control for the cell-based Wnt agonist screening system, was used to determine the expression level of the luciferase, and the results are shown in FIG. 3.
(§3) The cell lines, in which a cell-based Wnt agonist screening system was constructed, were cultured in RPMI 1640 media supplemented with penicillin-streptomycin (100 Units/mL) and heat-inactivated 5% fetal bovine serum under standard culture conditions (5% CO2, 37° C., 100% relative humidity). […] The suspension was diluted with the same medium to adjust the cell count to 8,000˜15,000 cells per well and was moved then in a 96-well microtiter plate. After being incubated for 24 hrs, the cells were treated with various concentrations of the isoxazole derivatives synthesized in Preparation Examples. Incubation for an additional 24 hours was followed by the quantitative analysis of luciferase activity using a Luciferase Assay kit (Promega, U.S.A.) according to the protocol described in the manual provided by the manufacturer. Data on the activities of the isoxazole derivatives thus synthesized are given in Tables 34 to 43, and are expressed as percentages relative to the activity of the positive control LiCl (20 mM), a well-known agonist of Wnt signaling.

[2] = tested on: Wnt/β-catenin signaling (β-catenin activity) in HEK293 cell line; experiment: Cell-based Wnt agonist screening, TCF luciferase reporter, HEK293 (TCF-FL); set-up: species or system human; conditions: % of LiCl (20 mM); for Emax at 30 µM: Conc. 30 μM; for Emax at 60 µM: Conc. 60 μM; for Emax at 120 µM: Conc. 120 μM
Excerpt: as §1, §2, §3

[3] = Homo sapiens, HEK293, 24 h, 24 h, read-out: Max. Activity (%)
[4] = Homo sapiens, 24 h, read-out: Max. Activity (%)

O=C(NCCCn1ccnc1)c1cc(-c2ccc(O)cc2)on1 [Derivative (107), 5-(4-hydroxy-phenyl)-isoxazole-3-carboxylic acid (3-imidazol-1-yl-propyl)-amide]
Emax at 60 µM ([1]; Homo sapiens, 24 h, Con. 60 μM, read-out: Max. Activity (%)): 584%
Emax at 30 µM [2, 3]: 28%
Emax at 60 µM [2, 3]: 584%

O=C(NCCCn1ccnc1)c1cc(-c2cccc(O)c2)on1 [Derivative (106), 5-(3-hydroxy-phenyl)-isoxazole-3-carboxylic acid (3-imidazol-1-yl-propyl)-amide]
Emax at 30 µM [1, 4]: 277%
Emax at 7.5 µM ([2]; Homo sapiens, HEK293, 24 h, 24 h, Conc. 7.5 μM, read-out: Max. Activity (%)): 29%
Emax at 30 µM [2, 3]: 277%

O=C(NCc1cccnc1)c1cc(-c2ccco2)on1 [Derivative (8), 5-furan-2-yl-isoxazole-3-carboxylic acid (pyridin-3-ylmethyl)-amide]
Emax at 30 µM [1, 4]: < 20%
Emax at 30 µM [2, 3]: < 20%

Cc1cccc(-c2cc(C(=O)NCCCn3ccnc3)no2)c1 [Derivative (79), 5-m-tolyl-isoxazole-3-carboxylic acid (3-imidazol-1-yl-propyl)-amide]
Emax at 10 µM ([1]; Homo sapiens, 24 h, Con. 10 μM, read-out: Max. Activity (%)): 48%
Emax at 10 µM ([2]; Homo sapiens, HEK293, 24 h, 24 h, Conc. 10 μM, read-out: Max. Activity (%)): 48%

O=C(NCCn1nccn1)c1cc(-c2ccc(F)cc2)on1 [Derivative (89), 5-(4-fluoro-phenyl)-isoxazole-3-carboxylic acid (2-[1,2,3]triazol-2-yl-ethyl)-amide]
Emax at 30 µM [1, 4]: 132%
Emax at 30 µM [2, 3]: 132%

O=C(NCCCn1ccnc1)c1cc(-c2ccccn2)on1 [Derivative (75), 5-pyridin-2-yl-isoxazole-3-carboxylic acid (3-imidazol-1-yl-propyl)-amide]
Emax at 30 µM [1, 4]: < 20%
Emax at 30 µM [2, 3]: < 20%

O=C(NCCc1ccc(F)cc1)c1cc(-c2ccco2)on1 [Derivative (18), 5-furan-2-yl-isoxazole-3-carboxylic acid [2-(4-fluoro-phenyl)-ethyl]-amide]
Emax at 15 µM ([1]; Homo sapiens, 24 h, Con. 15 μM, read-out: Max. Activity (%)): 149%
Emax at 30 µM [2, 3]: < 20%

COC(=O)c1cn(CCCNC(=O)c2cc(-c3ccco3)on2)cn1 [Derivative (58), 1-{3-[(5-furan-2-yl-isoxazole-3-carbonyl)-amino]-propyl}-1H-imidazole-4-carboxylic acid methyl ester]
Emax at 30 µM [1, 4]: 270%
Emax at 30 µM [2, 3]: < 20%

Cc1c(C(=O)NCCCn2ccnc2)noc1-c1ccco1 [Derivative (65), 5-furan-2-yl-4-methyl-isoxazole-3-carboxylic acid (3-imidazol-1-yl-propyl)-amide]
Emax at 30 µM [1, 4]: < 20%
Emax at 30 µM [2, 3]: < 20%

O=C(Nc1ccccc1O)c1cc(-c2ccco2)on1 [Derivative (2), 5-furan-2-yl-isoxazole-3-carboxylic acid (2-hydroxy-phenyl)-amide]
Emax at 30 µM [1, 4]: < 20%
Emax at 30 µM [2, 3]: < 20%

O=C(NCCCn1ccnn1)c1cc(-c2ccco2)on1 [Derivative (49), 5-furan-2-yl-isoxazole-3-carboxylic acid (3-[1,2,3]triazol-1-yl-propyl)-amide]
Emax at 30 µM [1, 4]: < 20%
Emax at 30 µM [2, 3]: < 20%

O=C(NCCc1ccccn1)c1cc(-c2ccco2)on1 [Derivative (10), 5-furan-2-yl-isoxazole-3-carboxylic acid (2-pyridin-2-yl-ethyl)-amide]
Emax at 120 µM [2, 3]: 32%

O=C(NCCc1ccncc1)c1cc(-c2ccco2)on1 [Derivative (12), 5-furan-2-yl-isoxazole-3-carboxylic acid (2-pyridin-4-yl-ethyl)-amide]
Emax at 60 µM [2, 3]: 109%

O=C(NCCn1ccnc1)c1cc(-c2ccco2)on1 [Derivative (33), 5-furan-2-yl-isoxazole-3-carboxylic acid (2-imidazol-1-yl-ethyl)-amide]
Emax at 120 µM [1, 4]: 580%
Emax at 15 µM ([2]; Homo sapiens, HEK293, 24 h, 24 h, Conc. 15 μM, read-out: Max. Activity (%)): 37%

O=C(NCCCn1ccnc1)c1cc(-c2cccc(F)c2)on1 [Derivative (82), 5-(3-fluoro-phenyl)-isoxazole-3-carboxylic acid (3-imidazol-1-yl-propyl)-amide]
Emax at 120 µM [1, 4]: 67%
Emax at 120 µM [2, 3]: 67%

COc1ccccc1-c1cc(C(=O)NCCCn2ccnc2)no1 [Derivative (99), 5-(2-methoxy-phenyl)-isoxazole-3-carboxylic acid (3-imidazol-1-yl-propyl)-amide]
Emax at 120 µM [1, 4]: 37%
Emax at 120 µM [2, 3]: 37%

O=C(NCCc1ccccc1)c1cc(-c2ccco2)on1 [Derivative (5), 5-furan-2-yl-isoxazole-3-carboxylic acid phenethyl-amide]
Emax at 30 µM [1, 4]: 148%
Emax at 30 µM [2, 3]: < 20%

O=C(NCCCn1ccnc1)c1cc(-c2cccc([N+](=O)[O-])c2)on1 [Derivative (113), 5-(3-nitro-phenyl)-isoxazole-3-carboxylic acid (3-imidazol-1-yl-propyl)-amide]
Emax at 120 µM [1, 4]: 46%
Emax at 120 µM [2, 3]: 46%

O=C(NCCc1ccc(O)cc1)c1cc(-c2ccco2)on1 [Derivative (22), 5-furan-2-yl-isoxazole-3-carboxylic acid [2-(4-hydroxy-phenyl)-ethyl]-amide]
Emax at 30 µM [2, 3]: < 20%

Cc1ccccc1-c1cc(C(=O)NCCCn2ccnc2)no1 [Derivative (78), 5-o-tolyl-isoxazole-3-carboxylic acid (3-imidazol-1-yl-propyl)-amide]
Emax at 120 µM [1, 4]: 42%
Emax at 120 µM [2, 3]: 42%

O=C(NCc1ccccc1)c1cc(-c2ccco2)on1 [Derivative (4), 5-furan-2-yl-isoxazole-3-carboxylic acid benzylamide]
Emax at 30 µM [1, 4]: < 20%
Emax at 30 µM [2, 3]: < 20%

O=C(NCCCn1ccnc1)c1cc(-c2ccncc2)on1 [Derivative (77), 5-pyridin-4-yl-isoxazole-3-carboxylic acid (3-imidazol-1-yl-propyl)-amide]
Emax at 30 µM [1, 4]: < 20%
Emax at 30 µM [2, 3]: < 20%

[Cl-].[Li+] [LiCl, lithium chloride, reference compound]
Max. Activity (%) ([1]; Con. 20000 μM): 100%
Max. Activity (%) ([2]; Conc. 20000 μM): 100%

O=C(c1cc(-c2cccs2)on1)N1CCN(c2ncccn2)CC1 [Derivative (222), (4-pyrimidin-2-yl-piperazin-1-yl)-(5-thiophen-2-yl-isoxazol-3-yl)-methanone]
Emax at 30 µM [1, 4]: 57%

O=C(NCCc1cccnc1)c1cc(-c2cccs2)on1 [Derivative (139), 5-thiophen-2-yl-isoxazole-3-carboxylic acid (2-pyridin-3-yl-ethyl)-amide]
Emax at 30 µM [1, 4]: 922%

O=C(NCCn1nccn1)c1cc(-c2cccs2)on1 [Derivative (136), 5-thiophen-2-yl-isoxazole-3-carboxylic acid (2-[1,2,3]triazol-2-yl-ethyl)-amide]
Emax at 1 µM [1, 4]: 837%

O=C(NCCOc1ccccc1)c1cc(-c2ccco2)on1 [Derivative (214), 5-furan-2-yl-isoxazole-3-carboxylic acid (2-phenoxy-ethyl)-amide]
Emax at 1 µM [1, 4]: 161%

CN(CCc1ccccn1)C(=O)c1cc(-c2ccco2)on1 [Derivative (61), 5-furan-2-yl-isoxazole-3-carboxylic acid methyl-(2-pyridin-2-yl-ethyl)-amide]
Emax at 120 µM [1, 4]: 56%

CN1CCN(CCNC(=O)c2cc(-c3ccco3)on2)CC1 [Derivative (177), 5-furan-2-yl-isoxazole-3-carboxylic acid [2-(4-methyl-piperazin-1-yl)-ethyl]-amide]
Emax at 30 µM [1, 4]: 582%

O=C(c1cc(-c2cccs2)on1)N1CCN(c2ccccn2)CC1 [Derivative (221), (4-pyridin-2-yl-piperazin-1-yl)-(5-thiophen-2-yl-isoxazol-3-yl)-methanone]
Emax at 30 µM [1, 4]: 51%

O=C(c1cc(-c2cccs2)on1)N1CCC(N2CCCC2)CC1 [Derivative (223), (4-pyrrolidin-1-yl-piperidin-1-yl)-(5-thiophen-2-yl-isoxazol-3-yl)-methanone]
Emax at 30 µM [1, 4]: 50%

O=C(NCCc1cccnc1)c1cc(-c2ccccc2)on1 [Derivative (71), 5-phenyl-isoxazole-3-carboxylic acid (2-pyridin-3-yl-ethyl)-amide]
Emax at 30 µM [1, 4]: 919%
